According to patent US7705025B2, “Histamine H3 receptor agents, preparation and therapeutic uses” (Eli Lilly and Company, priority 2004, dated 2010):

Biological target: T1, human histamine 3 receptor (Homo sapiens, UniProt Q9Y5N1)
T1 construct: expressed in transfected cells; membranes
Test: H3R binding assay (competitive inhibition SPA, [3H] α methylhistamine)
Details: membranes of HEK293 clone H3R8
Excerpt: The compounds of the present invention can readily be evaluated by using a competitive inhibition Scintillation Proximity Assay (SPA) based on a H3R binding assay using [3H] α methylhistamine as ligand. Stable cell lines, including but not limited to HEK can be transfected with cDNA coding for H3R to prepare membranes used for the binding assay. The technique is illustrated below (Preparation of Histamine Receptor Subtype Membranes) for the histamine receptor subtypes.
cDNA for the human histamine 1 receptor (H1R) was cloned into a mammalian expression vector containing the CMV promoter (pcDNA3.1(+), Invitogen) and transfected into HEK293 cells using the FuGENE Tranfection Reagent (Roche Diagnostics Corporation). Transfected cells were selected using G418 (500 μ/mL). Colonies that survived selection were grown and tested for histamine binding to cells grown in 96-well dishes using a scintillation proximity assay (SPA) based radioligand binding assay. Briefly, cells, representing individual selected clones, were grown as confluent monolayers in 96-well dishes (Costar Clear Bottom Plates, #3632) by seeding wells with 25,000 cells and growing for 48 hours (37° C., 5% CO2). […] Plates were counted in a Wallac Trilux 1450 Microbeta scintillation counter. […]
cDNA for the human histamine 3 receptor was cloned and expressed as described in (A. Preparation H1R membranes), above. […]

T1 sequence (Q9Y5N1 whole entry): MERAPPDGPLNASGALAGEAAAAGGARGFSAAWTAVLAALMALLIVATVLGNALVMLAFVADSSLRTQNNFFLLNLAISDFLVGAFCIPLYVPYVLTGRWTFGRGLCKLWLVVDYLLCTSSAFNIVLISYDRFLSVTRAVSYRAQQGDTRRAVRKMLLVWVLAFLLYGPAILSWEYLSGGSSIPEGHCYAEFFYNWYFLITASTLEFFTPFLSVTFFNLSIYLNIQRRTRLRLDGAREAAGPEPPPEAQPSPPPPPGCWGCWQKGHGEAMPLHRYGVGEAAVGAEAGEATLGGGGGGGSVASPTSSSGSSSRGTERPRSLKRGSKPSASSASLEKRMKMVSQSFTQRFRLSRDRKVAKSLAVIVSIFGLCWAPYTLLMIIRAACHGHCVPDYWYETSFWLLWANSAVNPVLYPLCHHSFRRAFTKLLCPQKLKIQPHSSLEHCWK

`O=C(c1ccc(-c2cccs2)nc1)N1CCC[C@H]1CN1CCCC1` was tested, and the Ki was 13.8 nM.

`O=C(c1ccc(-c2nc(-c3cccnc3)cs2)cc1)N1CCC[C@H]1CN1CCCC1` gave a Ki of 3.1 nM.
